Source: patent US20260373103A1, “COMPOSITIONS AND METHODS FOR PREVENTING CARDIOMYOPATHY” (OHIO STATE INNOVATION FOUNDATION, priority 2022, published 2026)

Experiments:
NDP52 = NDP52 level after A/O, immunoblotting; type: cell-based; settings: Parkin positive cells, A/O 18 h, ST-539 3 μg/ml; not in WT HeLa or PINK1 KO cells
Description: (§1) HeLa cells and mouse embryonic fibroblasts (MEFs) were grown in Dulbecco's minimum essential medium (DMEM) with 10% fetal bovine serum (FBS) supplemented with penicillin-streptomycin. HeLa Parkin, PINK1 KO cells, WT and MFN2 KO cells were previously described. Cells stably expressing USP30 were generated using lentiviral vectors of pLVX-Puro-Myc-USP30. The USP30 plasmid was obtained from Addgene. The plasmid was transferred into a lentiviral vector and viral particles were prepared by transiently transfecting HEK293T using standard methods. For the drug treatment experiments, cells were incubated in medium containing a mixture of 5 μM oligomycin and 5 μM antimycin A (A/O; see figures for treatment times). In 18 h treatment, A/O were used in combination with 10 μM quinolyl-valyl-O-methylaspartyl-[−2,6-difluorophenoxy]-methyl ketone (QVD), a broad-spectrum caspase inhibitor. […]
Genetic suppression of USP30 in Parkin-overexpressing cells promotes the clearance of mitochondria in response to mitochondrial depolarizing agents. […] To investigate if the PINK 1/Parkin pathway is required for ST-539 induced mitophagy, we analyzed TOM20 ubiquitination in wild-type (WT) HeLa cells, which express little to no endogenous Parkin, as well as in WT and PINK1 knockout (KO) HeLa cells stably expressing YFP-tagged Parkin. […]

wild type MEFs = assay: Mitochondrial morphology, confocal imaging; type: cell-based, mouse; settings: ST-539 3 or 10 μg/ml, 24 h
Description: (§2) HeLa cells and mouse embryonic fibroblasts (MEFs) were grown in Dulbecco's minimum essential medium (DMEM) with 10% fetal bovine serum (FBS) supplemented with penicillin-streptomycin. HeLa Parkin, PINK1 KO cells, WT and MFN2 KO cells were previously described. Cells stably expressing USP30 were generated using lentiviral vectors of pLVX-Puro-Myc-USP30. The USP30 plasmid was obtained from Addgene. The plasmid was transferred into a lentiviral vector and viral particles were prepared by transiently transfecting HEK293T using standard methods. For the drug treatment experiments, cells were incubated in medium containing a mixture of 5 μM oligomycin and 5 μM antimycin A (A/O; see figures for treatment times). In 18 h treatment, A/O were used in combination with 10 μM quinolyl-valyl-O-methylaspartyl-[−2,6-difluorophenoxy]-methyl ketone (QVD), a broad-spectrum caspase inhibitor. ST51000539 (ST-539) was purchased from Tim Tec, Inc. Other chemicals were from Sigma-Aldrich (St. Louis, MO, USA). For FACS analysis, cells stably expressing mt-Keima were incubated in medium containing a mixture of […] antimycin A for 1.5 h. Prior to A/O treatment, cultures were treated with DMSO or ST-539 at 3 μg/ml. Cells were trypsinized, washed once with PBS buffer and then resuspended into 500 μl of PBS prior to analysis using a BD Fortessa flow cytometer as previously described.

Mfn2^−/− MEF cells = assay: Mitochondrial morphology, confocal imaging; type: cell-based, mouse; settings: 3 or 10 μg/ml ST-539, 24 h
Description: as §2

TOM40 = TOM40 protein level/degradation after A/O, immunoblotting; type: cell-based; settings: ST-539; HeLa-Parkin/USP30, A/O 18 h
Description: as §1
The enzymatic activity of Parkin is to function as an E3 ubiquitin ligase. […] We then employed this cellular assay to monitor TOM20 turnover, and analyzed compounds known to be associated with the ubiquitination process for inhibitors of USP30. […] Initially to assess mitophagy in cells, we monitored the degradation of the inner membrane protein, the translocase of the inner membrane 23 (TIM23), by immunoblotting (FIG. 5A). […]

TOM20 = TOM20 ubiquitination and TOM20 protein level after A/O, western blot; type: cell-based
Description: as §2
Cells were lysed in RIPA buffer (50 mM Tris-HCl, at pH 8.0; 150 mM NaCl; 1% (vol/vol) Nonidet P-40; 0.5% sodium deoxycholate, 0.1% SDS and protease inhibitor cocktail (Roche)) on ice. Primary antibodies were used at the following concentrations: USP30 (Santa Cruz, sc-515235, 1:200); TOM20 (Cell Signaling Technology, 42406S, 1:1000); TOM40 (Proteintech, 18409-1-AP, 1:1000); NDP52 (Cell Signaling Technology, 60732S, 1:1000); TIM23 (Proteintech, 11123-1-AP, 1:500); LC3A/B (Cell Signaling Technology, 4108S, 1:1000); GAPDH (Cell Signaling Technology, 5175S, 1:1000); PINK1 (Cell Signaling Technology, 6946S, 1:1000); ACTIN (Cell Signaling Technology, 3700S, 1:1000). The membranes were incubated with anti-rabbit (LI-COR, 926-32211, 1:15000) or anti-mouse (LI-COR, 926-68072, 1:15000) IgG secondary antibodies for 1 h at room temperature. Images were captured using the Odyssey system (LI-Cor). One representative blot is shown of three independent experiments.
The enzymatic activity of Parkin is to function as an E3 ubiquitin ligase. […] To investigate TOM20 ubiquitination during mitophagy, we treated HeLa cells stably expressing YFP-Parkin (Hela-Parkin) for up to 18 h with both the mitochondrial complex III inhibitor antimycin A and the ATP synthase inhibitor oligomycin (antimycin A/oligomycin/[A/O]; FIG. 1A). […] A/O treatment also results in a decline in the abundance of the OMM protein TOM40 and the inner mitochondrial protein TIM23 (FIG. 1A). […] In this context, increased expression of USP30 blocked the accumulation of ubiquitinated TOM20 and prevented the destruction of this outer mitochondrial protein, as well as TOM40 and TIM23, after A/O treatment (FIG. 1A). We then employed this cellular assay to monitor TOM20 turnover, and analyzed compounds known to be associated with the ubiquitination process for inhibitors of USP30. […] We defined the effects of this chemical using biochemical assays. […] Initially to assess mitophagy in cells, we monitored the degradation of the inner membrane protein, the translocase of the inner membrane 23 (TIM23), by immunoblotting (FIG. 5A). […] USP30's overexpression prevented a reduction in TIM23 and TOM40 levels.
Genetic suppression of USP30 in Parkin-overexpressing cells promotes the clearance of mitochondria in response to mitochondrial depolarizing agents. […]

mice = assay: Safety / tolerability in mice; type: in vivo; settings: 25 mg/kg/day i.p. for 5 days
Description: The mt-Keima mouse. ST-539 was dissolved into 1% DMSO in Sesame oil and injected intraperitoneally (i.p.) at doses of 25 mg/kg/day with five total doses. Both male and female mice were used in this study. The control group received vehicle only. Echocardiographic measurements were taken using a Vevo3100 Visual Sonics (Visual Sonics) system. The mice were lightly anesthetized with isoflurane and the ejection fraction, fractional shortening, and ventricular chamber dimensions were determined using 2-D-guided M mode images. Ejection fraction, fractional shortening, ventricular chamber dimensions, and left ventricular mass were calculated automatically using the VevoLAB program. All experiments involving animals were approved by the Institutional Animal Care and Use Committee at The Ohio State University.

[1] = ST-539 10 μg/ml, with A/O, presence of USP30

CC(C)(C)NS(=O)(=O)c1cccc2c(NC(=O)C(Cc3ccccc3)NC(=O)c3ccccc3)cccc12 (centres unmarked) [ST-539]
reduction in NDP52 level relative to vehicle treated cells (NDP52): more significant reduction
mitochondrial morphology (wild type MEFs): failed to change the mitochondrial morphology
elongation of mitochondria (Mfn2^−/− MEF cells): did not induce the elongation of mitochondria significantly
TOM40 degradation (TOM40): restored TIM23 and TOM40 degradation
TOM20 ubiquitination and decline in TOM20 level on addition of ST-539 (TOM20; A/O plus ST-539 1 or 3 μg/ml, cells expressing both ectopic Parkin and endogenous PINK1): further potentiated
correlation of TOM20 ubiquitination with ST-539 dosage (TOM20; A/O treatment): A close correlation exists
reduction in TOM20 level relative to vehicle treated cells (TOM20; Parkin positive cells, A/O 18 h, ST-539 3 μg/ml, not in WT HeLa or PINK1 KO cells): more significant reduction
TOM20 ubiquitination (TOM20; [1]): caused a ubiquitinated TOM20
loss of TOM20 protein level (TOM20; [1]): ~ 90%
TOM20 ubiquitination independent of functional PINK1/Parkin pathway (TOM20; long term treatment (18 h), ST-539 3 μg/ml): did not promote TOM20 ubiquitination
safety / tolerability in mice (mice): appears to be safe in mice
